Among the data in PubChem BioAssay AID463074 (Broad Institute, 2010) are AC50 values, retold here.

The structures appear in SMILES notation. Activity calls are given as the source filed them.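 Rule for the calls: active = AC50 no more than tenfold above the top dose tested, or full inhibition at every dose with a flat fit (cut at about 19 µM in these data); inconclusive = flat curve fit with inhibition between 30% and 70%, or poor fit; inactive = AC50 more than tenfold above the top dose tested.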 Where only a bound is given, the exact number is not on record here.

The test system of the experiment is HMLE_sh_eGFP viability, CellTiter-Glo luminescence, 72 h. Briefly: cytotoxicity in HMLE control line with eGFP shRNA, dose response, counter-screen for HMLE_sh_ECad selective toxicity project, cell-based, HMLE_sh_eGFP, luminescence (AID 463074).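 Note: potency for loss of viability as luminescence drops below DMSO wells.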 Background: The purpose of a counterscreen is to sort out artefacts and off-target activity.
As for `CCCCC[C@@H]1C=C(C(=O)O)[C@H](c2ccc(Cl)c(Cl)c2)N1S(=O)(=O)c1ccc(C)cc1`, the AC50 (commonly the midpoint of the concentration-response curve, whichever way the signal moves) is 5.05 µM.
`Fc1ccc2[nH]c3c(N4CCc5ccccc5C4)ncnc3c2c1`: the AC50 was 7.36 µM.
For the compound `Cc1c(O)cccc1C(=O)N[C@@H](CSc1ccccc1)[C@H](O)CN1C[C@H]2CCCC[C@H]2C[C@H]1C(=O)NC(C)(C)C`, the AC50 is 7.33 µM.
As for `NC(=O)CC(NC(=O)Cc1ccc(Br)cc1)c1ccc(NC2CCCCCC2)c([N+](=O)[O-])c1` (configuration not stated), the AC50 was 4.88 µM.
For the compound `Cc1ccc(-c2nnc(Sc3nc4ccccc4o3)c3ccccc23)cc1`, the half-maximal activity concentration (AC50) is 6.74 µM.
Turning to `Cc1c(C(=O)c2cccc3ccccc23)c2cccc3c2n1[C@H](CN1CCOCC1)CO3`, the AC50 is 3.66 µM.
In the case of `CC[C@@]1(O)C(=O)OCc2c1cc1n(c2=O)Cc2cc3c(NC(=O)CN)cccc3nc2-1`, the AC50 was 2.56 µM.
Regarding `Cc1ccc(COc2ccc(Br)cc2/C=N/O)cc1`, the AC50 was 5.23 µM.
On to `CCCCNc1c(-c2ccc(SC(C)CC)cc2)nc2ccccn12` (configuration not stated), for which the concentration at half-maximal activity (AC50) was 4.06 µM.
The figure for `S=C(Nc1ccccc1Cl)N1CCCC(c2ccccc2)=N1` is 8.88 µM; for `CN1CCN(c2ccc(NC(=O)c3ccc(Cl)cc3)cn2)CC1` it is > 19.5 µM (inactive); for `CNC(=O)c1c(NC(=O)c2ccc(S(=O)(=O)N3CCCc4ccccc43)cc2)sc2c1CCN(C)C2` it is 0.987 µM.
On to `O=C(/C=C/c1c[nH]c2ccccc12)c1cccc2ccccc12`, for which the AC50 is 5.3 µM.
Turning to `COc1cccc(-c2sc3ccc(OC)cc3c2C#CCC(C)O)c1` (configuration not stated), the AC50 is 5.4 µM.
The result for `CCOC(=O)C(=NCCCN1CCOCC1)NNc1cccc(C(F)(F)F)c1` reads 9.13 µM; that for `C/C(=N\Nc1ccccc1)c1c(O)n(Cc2ccccc2)c(=O)[nH]c1=O`, 1.9 µM; that for `Cc1ccc(-c2nc(NCc3ccco3)c3ccccc3n2)cc1`, 12.4 µM.
On to `CC(=O)Oc1ccc(-c2csc(Nc3cccc(C)n3)n2)cc1`, for which the AC50 is 8.79 µM.
`COc1cc(C2NCC(c3ccc(Cl)cc3Cl)c3c2[nH]c2ccccc32)cc(OC)c1OC` (configuration not stated): the AC50 was 18.7 µM.
As for `O=C(CSc1nc(-c2ccccc2)cc(C(F)(F)F)n1)c1cccc([N+](=O)[O-])c1`, the AC50 is 20.4 µM.
On to `CC(C)=CCc1c(O)cc2c(=O)c3ccc(O)cc3oc2c1O`, for which the AC50 was 6.87 µM.
Take `N#C/C(=C\C=C\c1ccccc1[N+](=O)[O-])C(=O)NC1CCCCC1`: the AC50 is 6.88 µM.
In the case of `COc1cc(/C=C/C(=O)c2ccc3c(c2)OCO3)cc(Cl)c1O`, the half-maximal activity concentration (AC50) is 10.8 µM.
On to `CC(=O)Nc1ccc(-c2csc(NC(=O)Cc3ccccc3F)n2)cc1`, for which the concentration at half-maximal activity (AC50) was 11.5 µM.
The result for `CCOC(=O)C1=C(C)N2C(=C(C#N)[C@@H]1c1ccc(C(=O)OC)cc1)SC[C@@]2(O)C(C)(C)C` reads 4.79 µM; that for `O=C(Nc1ccc2c(c1)CCC2)c1cc(S(=O)(=O)Nc2ccc(F)cc2)c(Cl)cc1Cl`, 5.38 µM.
On to `Cc1cccc(N2CCN(C(=S)Nc3ccc4nc(N5CCN(C)CC5)cc(C)c4c3)CC2C)c1` (configuration not stated), for which the AC50 is 7.35 µM.
On to `COc1ccc(-c2sc3ccc(N4CCOCC4)cc3c2C#CC2(O)CCCCC2)cc1`, for which the AC50 was 2.94 µM.
In the case of `Cc1ccc(CNc2cnn(C34CC5CC(CC(C5)C3)C4)c(=O)c2Cl)cc1`, the AC50 was 2.44 µM.
With `CCCCCCc1cc2cc(-c3nnc(-c4cc(OC)c(OC)c(OC)c4)o3)c(=O)oc2cc1O`, the AC50 was 5.89 µM.
The result for `COC(=O)c1ccc(/C=C/c2c(-c3ccc(OC)cc3)sc3ccccc23)cc1` reads 7.05 µM; that for `COc1ccc(Cn2c3ccc(OC)cc3c3nc4ccccc4nc32)cc1`, 17.8 µM; that for `O=C(/C=C/c1ccc(Cl)cc1)c1ccc([N+](=O)[O-])o1`, 2.19 µM.
Regarding `Cn1nnnc1Sc1ncnc2scc(-c3ccc(C(F)(F)F)cc3)c12`, the AC50 was 3.03 µM.
Regarding `Cc1cccc(NC(=O)c2nc[nH]c2C(=O)N[C@@H](C)c2ccccc2)c1`, the AC50 is 12 µM.
With `COCCNC(=O)CN(C(=O)CCC(=O)Nc1ccccn1)c1ccc(C)cc1`, the AC50 was > 19.5 µM (inactive).
The result for `O=C(C[n+]1ccccc1)NNc1ccccc1` reads 1.78 µM; that for `O=[N+]([O-])c1cccnc1N1CCC(c2cc(-c3ccc(Cl)cc3Cl)n[nH]2)CC1`, 4.6 µM; that for `O=C(N/N=C\c1cc(Br)ccc1O)c1ccc(S(=O)(=O)N2CCCCC2)cc1`, 2.75 µM.
In the case of `CCOc1cc(NC(=O)c2ccccn2)c(OCC)cc1NC(=O)c1ccccc1`, the AC50 was > 19.5 µM (inactive).
Consider `C=CCCC(=O)Nc1nc(C)c(-c2csc(Nc3cc(OC)ccc3OC)n2)s1`, for which the half-maximal activity concentration (AC50) is 1.02 µM.
Take `Cc1[nH]n(-c2ccc([N+](=O)[O-])cc2)c(=O)c1C=NCCN1CCN(C(=O)C(C)C)CC1`: the concentration at half-maximal activity (AC50) is 5.14 µM.
The result for `CC1=NN(c2nc(-c3ccc(Cl)cc3)cs2)C(=O)C1` reads 12.3 µM.
The figure for `Cc1cccc(NC(=O)c2cc(-c3cc(C)cc(C)c3O)n[nH]2)c1` is 4.2 µM.
Regarding `COC(=O)c1c(NC(=O)c2ccco2)sc2c1CCC2`, the AC50 was > 19.5 µM (inactive).
For `O=C(CSCc1cccc(Br)c1)N/N=C/c1ccc2c(c1)OCO2`, the AC50 was 5.34 µM.
Take `CSc1c(SCc2ccccc2)cnn(-c2ccccc2)c1=O`: the AC50 is 5.71 µM.
For the compound `CCOC(=O)c1c(NC(=O)C2COc3ccccc3O2)sc2c1CC(C)(C)NC2(C)C` (configuration not stated), the half-maximal activity concentration (AC50) was 9.86 µM.
With `COc1ccc(/C=C2/C(=O)N(c3nc4ccccc4s3)N=C2CSc2ccc(Cl)cc2)cc1`, the AC50 is 6.5 µM.
Take `CCCCCc1cc(=O)oc2c(C(CCN3CCCCC3)c3ccc4c(c3)OCO4)c(OC)cc(OC)c12` (configuration not stated): the half-maximal activity concentration (AC50) is 6.89 µM.
The figure for `Cc1ccc(N2C(=O)C3C4C=CC(CC4)C3C2=O)cc1Br` (configuration not stated) is 1.38 µM; for `CC1S/C(=N/N=C/c2cccc([N+](=O)[O-])c2)NC1=O` (configuration not stated) it is 3.48 µM; for `Cc1ccc(NC(=S)Nc2ccc(C(C)C)cc2)cc1S(=O)(=O)N1CCCCCC1` it is 3.82 µM.
The figure for `CN(C)N1C(N)=C(C#N)C(c2cccc3ccccc23)C2=C1CC(c1ccccc1)CC2=O` (configuration not stated) is 1.02 µM; for `O=C(O)c1ccc(CSc2nc(-c3ccc(Cl)cc3)cc(C(F)(F)F)n2)cc1` it is 9.94 µM.
For the compound `CN1CCN(c2ccccc2NC(=O)c2ccc(-c3ccc(Cl)c(Cl)c3)o2)CC1`, the AC50 was 6.68 µM.
As for `O=C(Nc1ccc(Nc2ccccc2)cc1)Nc1ccccc1Cl`, the AC50 is 3.44 µM.
On to `CCCCCCCCCCCCN1[C@@H](CC(C)=O)c2cc(F)ccc2S1(=O)=O`, for which the half-maximal activity concentration (AC50) was 10 µM.
The figure for `Cc1oc2c(F)c(F)c(F)c(F)c2c1S(=O)(=O)Nc1cccc(C(F)(F)F)c1` is 4.95 µM.
The result for `CCCCCc1ccc(OCCCC[n+]2cccc(C)c2)c(CCCCC)c1` reads 7.42 µM; that for `Cc1cccc2c1NC(=O)/C2=C\C(=O)c1cccs1`, 6.66 µM; that for `Cc1cc(Nc2cccc(Cl)c2)nc(NCc2ccccc2)n1`, 3.73 µM.
In the case of `CN(C)c1ccc(/C=C(\Cl)c2nc3ccccc3s2)cc1`, the AC50 was 2.85 µM.
In the case of `COc1cc(SC#N)ccc1N=Cc1c(C)[nH]n(-c2ccc(C)c(C)c2)c1=O`, the AC50 was 4.52 µM.
Take `CC[C@@H]1CC=C[C@H]2[C@H]1C(=O)N(Cc1ccccc1)[C@H]2c1ccc(OC)c(Cl)c1`: the AC50 is 7.13 µM.
As for `O=C(Nc1ccc2c(c1)OCCO2)c1cccc2nc3ccccc3nc12`, the AC50 was 3.18 µM.
Turning to `CC(C)n1cnc2c(NCc3ccccc3)cc(Cc3ccc(F)cc3)cc21`, the AC50 is 4.67 µM.
With `CS(=O)(=O)c1ccc(C(=O)OCC(=O)NC23CC4CC(CC(C4)C2)C3)cc1[N+](=O)[O-]`, the concentration at half-maximal activity (AC50) was 2.39 µM.
With `Cc1ccc(Cl)cc1N1CCN(C(CC(C)C)c2nnnn2CC2CCCO2)CC1` (configuration not stated), the half-maximal activity concentration (AC50) is 0.808 µM.
Take `COc1cc(OC)cc(-c2sc3ccc(OC)cc3c2C#CCCO)c1`: the AC50 was 7.93 µM.
With `CC(C)(C)c1ccc(Oc2ccc(N)cc2)cc1`, the half-maximal activity concentration (AC50) is 13.5 µM.
Take `O=[N+]([O-])c1nn(-c2ccc3c(c2)OCCO3)n(O)c1=NCCC1=CCCCC1`: the half-maximal activity concentration (AC50) was 17.9 µM.
In the case of `c1ccc(-c2c(-c3ccccc3)n(Cc3ccco3)c3ncnc(NCCCn4ccnc4)c23)cc1`, the concentration at half-maximal activity (AC50) is 6.74 µM.
As to `COCCNc1nnc(SC(C)C(=O)Nc2ccc(-c3nc4ccc(C)cc4s3)cc2)s1` (configuration not stated), the AC50 was 10.5 µM.
On to `CCCN1C/C(=C/c2ccc3c(c2)OCO3)C(=O)/C(=C/c2ccc3c(c2)OCO3)C1`, for which the AC50 was 1.12 µM.
For the compound `S=C(Nc1cc(Cl)cc(Cl)c1)NC1CCN(Cc2ccccc2)CC1`, the half-maximal activity concentration (AC50) was 4.23 µM.
With `Cc1ccc(NC(=S)Nc2cccc3cnccc23)cc1C`, the AC50 was > 19.5 µM (inactive).
The result for `O=C(CN(c1cccc(C(F)(F)F)c1)S(=O)(=O)c1ccc(Cl)c([N+](=O)[O-])c1)NCc1ccccc1Cl` reads 2.6 µM; that for `O=C(CCc1ccccc1)Nc1sc2c(c1C(=O)O)CCCC2`, > 19.5 µM (inactive); that for `Cc1cc(OCC(=O)Nc2ccc(S(=O)(=O)NC3=NCCCCC3)cc2)c(C(C)C)cc1Cl`, 10.2 µM.
For `CCN1C(=O)/C(=C\c2ccncc2)SC1=Nc1ccc(C)c(C)c1`, the AC50 was 6.82 µM.
For the compound `CCOc1ccc(OCC(=O)N(CCC2=CCCCC2)c2c(N)n(Cc3ccccc3)c(=O)[nH]c2=O)cc1`, the AC50 was 6.29 µM.
The result for `O=C(N/N=C/c1ccc[nH]1)c1sc2ccccc2c1Cl` reads 13.4 µM.
For `CCCCNc1c(-c2cccc(-c3cc(C(C)=O)cs3)c2)nc2ccc(C)cn12`, the half-maximal activity concentration (AC50) is 3.48 µM.
The figure for `CC(C)(C)OC(=O)NCc1ccc(NC(=O)c2nc[nH]c2C(=O)NCCCCNC(=O)c2[nH]cnc2C(=O)Nc2ccc(CNC(=O)OC(C)(C)C)cc2)cc1` is 2.15 µM; for `CCN1CCN(c2cc(C(C)(C)C)nc3c(-c4ccccc4)c(C)nn23)CC1` it is 6.81 µM; for `C/C(=N/NC(=O)c1ccc(-c2ccccc2)cc1)c1cc(O)cc(O)c1` it is 3.85 µM.
The result for `CCCOc1ccccc1-n1sc2c(c1=S)-c1cc(OC)cc3c1N(C(=O)C3=O)C2(C)C` reads 9.1 µM; that for `CC(C)C[C@H](N)c1nnc(S(=O)(=O)Cc2ccc(F)cc2)o1`, 8.54 µM; that for `O=c1[nH]c2ccccc2n1C1CCN(CCCC(c2ccc(F)cc2)c2ccc(F)cc2)CC1`, 6.27 µM.
The result for `CC1=NN(c2ccccc2)C(=O)/C1=C\C=C\c1ccccc1` reads 3.55 µM; that for `Cc1ccc2nc(Cl)c3cc(C(=O)N(CCN(C)C)Cc4ccco4)sc3c2c1`, 3.53 µM.
